Measured values reported in PubChem BioAssay AID1963830 (Molecular Pharmacology Branch, DTP, NCI, 2024).

Test system: 922993-354-T-J3-PDC complex spheroid viability
Assay: Anticancer human tumor 922993-354-T-J3-PDC patient-derived endometrial carcinoma cell line growth inhibition [POLQ]
Settings: for IC50: curve of first compound; for viability, T/C: stronger effect = lower value
In short: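 Complex spheroid viability model combining PDC tumour cells with endothelial (HUVEC) and MSC stromal cells. Novobiocin, ART-558 or RP6685 were tested singly and in combination with standard and investigational anticancer drugs. Each was titrated in half-log steps from near clinical Cmax, or from 10 microM where Cmax was unknown.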

[1] = second compound 0.0316 µM, first compound 0.0316 µM
[2] = second compound 0.0316 µM, first compound 0.1 µM
[3] = second compound 0.0316 µM, first compound 0.316 µM
[4] = second compound 0.0316 µM, first compound 1 µM
[5] = second compound 0.0316 µM, first compound 3.16 µM
[6] = second compound 0.0316 µM, first compound 10 µM
[7] = second compound 0.1 µM, first compound 0.0316 µM
[8] = second compound 0.1 µM, first compound 0.1 µM
[9] = second compound 0.1 µM, first compound 0.316 µM
[10] = second compound 0.1 µM, first compound 1 µM
[11] = second compound 0.1 µM, first compound 3.16 µM
[12] = second compound 0.1 µM, first compound 10 µM
[13] = second compound 0.316 µM, first compound 0.0316 µM
[14] = second compound 0.316 µM, first compound 0.1 µM
[15] = second compound 0.316 µM, first compound 0.316 µM
[16] = second compound 0.316 µM, first compound 1 µM
[17] = second compound 0.316 µM, first compound 3.16 µM
[18] = second compound 0.316 µM, first compound 10 µM
[19] = second compound 1 µM, first compound 0.0316 µM
[20] = second compound 1 µM, first compound 0.1 µM
[21] = second compound 1 µM, first compound 0.316 µM
[22] = second compound 1 µM, first compound 1 µM
[23] = second compound 1 µM, first compound 3.16 µM
[24] = second compound 1 µM, first compound 10 µM
[25] = second compound 3.16 µM, first compound 0.0316 µM
[26] = second compound 3.16 µM, first compound 0.1 µM
[27] = second compound 3.16 µM, first compound 0.316 µM
[28] = second compound 3.16 µM, first compound 1 µM
[29] = second compound 3.16 µM, first compound 3.16 µM
[30] = second compound 3.16 µM, first compound 10 µM
[31] = second compound 10 µM, first compound 0.0316 µM
[32] = second compound 10 µM, first compound 0.1 µM
[33] = second compound 10 µM, first compound 0.316 µM
[34] = second compound 10 µM, first compound 1 µM
[35] = second compound 10 µM, first compound 3.16 µM
[36] = second compound 10 µM, first compound 10 µM
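Further: spheroids exposed to the agents for one week.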
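Wherever viability, T/C is given: 100% = DMSO vehicle control wells.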

## COc1cc2cc(C(=O)CCC(=O)O)sc2cc1OC + COC1C(OC(N)=O)C(O)C(Oc2ccc3c(O)c(NC(=O)c4ccc(O)c(CC=C(C)C)c4)c(=O)oc3c2C)OC1(C)C
Second compound 0.0316 µM
  IC50: > 10 µM
Second compound 0.1 µM
  IC50: > 10 µM
Second compound 0.316 µM
  IC50: > 10 µM
Second compound 1 µM
  IC50: > 10 µM
Second compound 3.16 µM
  IC50: > 10 µM
Second compound 10 µM
  IC50: > 10 µM
[1]
  viability, T/C: 105%
[2]
  viability, T/C: 94.7%
[3]
  viability, T/C: 108%
[4]
  viability, T/C: 106%
[5]
  viability, T/C: 103%
[6]
  viability, T/C: 60.1%
[7]
  viability, T/C: 103%
[8]
  viability, T/C: 110%
[9]
  viability, T/C: 104%
[10]
  viability, T/C: 105%
[11]
  viability, T/C: 107%
[12]
  viability, T/C: 73.1%
[13]
  viability, T/C: 111%
[14]
  viability, T/C: 101%
[15]
  viability, T/C: 104%
[16]
  viability, T/C: 106%
[17]
  viability, T/C: 101%
[18]
  viability, T/C: 74.2%
[19]
  viability, T/C: 104%
[20]
  viability, T/C: 92.3%
[21]
  viability, T/C: 97.2%
[22]
  viability, T/C: 102%
[23]
  viability, T/C: 105%
[24]
  viability, T/C: 65.1%
[25]
  viability, T/C: 97.4%
[26]
  viability, T/C: 87.6%
[27]
  viability, T/C: 100%
[28]
  viability, T/C: 96.1%
[29]
  viability, T/C: 113%
[30]
  viability, T/C: 61.8%
[31]
  viability, T/C: 86.3%
[32]
  viability, T/C: 75.2%
[33]
  viability, T/C: 101%
[34]
  viability, T/C: 91.4%
[35]
  viability, T/C: 91.4%
[36]
  viability, T/C: 62%

## COc1ccc([C@@H](O)c2cc(-c3ncnc4cc(N5CCOCC5)ccc34)c(F)cc2Cl)nn1 + COC1C(OC(N)=O)C(O)C(Oc2ccc3c(O)c(NC(=O)c4ccc(O)c(CC=C(C)C)c4)c(=O)oc3c2C)OC1(C)C
Second compound 0.0316 µM
  IC50: > 10 µM
Second compound 0.1 µM
  IC50: > 10 µM
Second compound 0.316 µM
  IC50: > 10 µM
Second compound 1 µM
  IC50: > 10 µM
Second compound 3.16 µM
  IC50: > 10 µM
Second compound 10 µM
  IC50: > 10 µM
[1]
  viability, T/C: 95.1%
[2]
  viability, T/C: 81.3%
[3]
  viability, T/C: 102%
[4]
  viability, T/C: 94.9%
[5]
  viability, T/C: 85.2%
[6]
  viability, T/C: 58.2%
[7]
  viability, T/C: 105%
[8]
  viability, T/C: 92.8%
[9]
  viability, T/C: 102%
[10]
  viability, T/C: 79.6%
[11]
  viability, T/C: 77.8%
[12]
  viability, T/C: 72.9%
[13]
  viability, T/C: 110%
[14]
  viability, T/C: 97%
[15]
  viability, T/C: 96%
[16]
  viability, T/C: 85.2%
[17]
  viability, T/C: 76.6%
[18]
  viability, T/C: 72.2%
[19]
  viability, T/C: 96%
[20]
  viability, T/C: 110%
[21]
  viability, T/C: 99.5%
[22]
  viability, T/C: 98.1%
[23]
  viability, T/C: 85.8%
[24]
  viability, T/C: 74.8%
[25]
  viability, T/C: 84.4%
[26]
  viability, T/C: 93.1%
[27]
  viability, T/C: 101%
[28]
  viability, T/C: 87.9%
[29]
  viability, T/C: 93.6%
[30]
  viability, T/C: 69.2%
[31]
  viability, T/C: 86.1%
[32]
  viability, T/C: 90%
[33]
  viability, T/C: 107%
[34]
  viability, T/C: 83.8%
[35]
  viability, T/C: 88.6%
[36]
  viability, T/C: 69.8%
